Where “and” joins values, the source holds several entries; their conditions need not be identical. Equal values may be shown once. Entries after “also recorded” stand apart in the source; their conditions may differ. Non-standard residues stand in square brackets, D forms with d. Residues, ends and D or L forms follow the SMILES beside them. pGlu = O=C1CC[C@@H](C(=O)O)N1

Format in all cases: in vivo
One assay deals with release of LH. As to the kind of experiment: Release of LH in rats after sc injection. Particulars: for LH % change: LHRH = 100; for release of LH compared with LHRH: sc injection, dose and time as stated in the source. The source says: (§1) The data on the release of LH and FSH in rats by modifications of LHRH with one structural change are in Table II.
(§2) Exclusive of the salmon-LHRH, only one of the six decapeptides with two structural changes had significant activity.

Assay [1] concerns release of FSH. The assay can be described thus: Release of FSH in rats after sc injection. Particulars: for FSH % change: LHRH = 100.
Description: as §1, §2

The subject of assay [2] is release of FSH. As to the kind of experiment: Release of FSH in rats after sc injection. Particulars: dose and time as stated in the source.
Where [3] appears, read: 15 min. after sc injection, 100 ng.
Where [4] appears, read: 15 min. after sc injection, 1000 ng.
The mark [5] stands for this setting: 60 min. after sc injection, 300 ng.
Setting [6] is: 60 min. after sc injection, 3000 ng.
The mark [7] stands for this setting: release 15 min. after sc injection, dosage of peptide 100 ng.
Where [8] appears, read: release 15 min. after sc injection, dosage of peptide 1000 ng.
The mark [9] stands for this setting: release 60 min. after sc injection, dosage of peptide 300 ng.
Setting [10] is: release 60 min. after sc injection, dosage of peptide 3000 ng.
The mark [11] stands for this setting: 30 min. after sc injection, 1000 ng.
Where [12] appears, read: release 30 min. after sc injection, dosage of peptide 50 ng.
Where [13] appears, read: release 30 min. after sc injection, dosage of peptide 1000 ng.

Regarding `CC(C)C[C@H](NC(=O)CNC(=O)[C@H](Cc1c[nH]cn1)NC(=O)[C@H](CO)NC(=O)[C@H](Cc1c[nH]c2ccccc12)NC(=O)[C@H](Cc1c[nH]cn1)NC(=O)[C@@H]1CCC(=O)N1)C(=O)N[C@@H](CC(C)C)C(=O)N1CCC[C@H]1C(=O)NCC(N)=O` [[His^5 Leu^8]--LHRH, p-Glu His Trp Ser His Gly Leu Leu Pro Gly-NH2] ([pGlu]HWSHGLLPG-NH2), the LH % change in the assay on release of LH (setting [3]) turned out to be 0.8%; in the assay on release of LH (setting [4]), 5%; with release of LH (setting [5]), 20%; in the assay with release of LH (setting [6]) it was 2.2%. Besides, the LH with release of LH (setting [7]) was 0.2 ng/mL; with release of LH (setting [8]), 3.3 ng/mL; in the assay with release of LH (setting [9]), 2.2 ng/mL; in the assay on release of LH (setting [10]), 1.8 ng/mL. For the same compound, the FSH % change is given as 43% with release of FSH [1] (setting [3]), 57% in the assay with release of FSH [1] (setting [4]), 44% in the assay on release of FSH [1] (setting [5]) and 18% in the assay on release of FSH [1] (setting [6]). Besides, the FSH with release of FSH [1] (setting [7]) worked out at 202 ng/mL; in the assay on release of FSH [1] (setting [8]) it was 276 ng/mL; with release of FSH [1] (setting [9]), 261 ng/mL; in the assay with release of FSH [1] (setting [10]) it was 205 ng/mL.
As for `CC(C)C[C@H](NC(=O)[C@H](Cc1c[nH]c2ccccc12)NC(=O)CNC(=O)[C@H](Cc1c[nH]cn1)NC(=O)[C@H](CO)NC(=O)[C@H](Cc1c[nH]c2ccccc12)NC(=O)[C@H](Cc1c[nH]cn1)NC(=O)[C@@H]1CCC(=O)N1)C(=O)N1CCC[C@H]1C(=O)NCC(N)=O` [[His^5 Trp^7 Leu^8]--LHRH, p-Glu His Trp Ser His Gly Trp Leu Pro Gly-NH2] ([pGlu]HWSHGWLPG-NH2), the LH % change in the assay on release of LH (setting [3]) worked out at 38%; in the assay with release of LH (setting [4]), 40%; in the assay with release of LH (setting [5]) it was 23%; in the assay with release of LH (setting [6]) it was 6%. Further, the “LH released, % of the LH released by LHRH” value in the assay with release of LH (levels of 100 and 1000 ng) is “up to 50%”. In addition, the LH amounted to 9 ng/mL in the assay with release of LH (setting [7]), 23 ng/mL with release of LH (setting [8]), 2.5 ng/mL with release of LH (setting [9]) and 5 ng/mL in the assay with release of LH (setting [10]). In addition, the FSH % change with release of FSH [1] (setting [5]) amounted to 62%; in the assay on release of FSH [1] (setting [6]) it was 32%. For the same compound, the FSH in the assay with release of FSH [1] (setting [7]) was found to be 383 ng/mL; with release of FSH [1] (setting [8]) it was 445 ng/mL; in the assay on release of FSH [1] (setting [9]), 369 ng/mL; in the assay with release of FSH [1] (setting [10]) it was 376 ng/mL. The “release of FSH compared with LHRH” value was “equivalent in activity to LHRH” in the assay with release of FSH [2] and “released as much FSH as LHRH” in the assay on release of FSH [2] (Trp^7 Leu^8 ]-LHRH).
On to `CC(C)C[C@H](NC(=O)CNC(=O)[C@H](Cc1c[nH]cn1)NC(=O)[C@H](CO)NC(=O)[C@H](Cc1c[nH]c2ccccc12)NC(=O)[C@H](Cc1c[nH]cn1)NC(=O)[C@@H]1CCC(=O)N1)C(=O)N[C@@H](CCC(N)=O)C(=O)N1CCC[C@H]1C(=O)NCC(N)=O` [[His^5 Gln^8]--LHRH, p-Glu His Trp Ser His Gly Leu Gln Pro Gly-NH2] ([pGlu]HWSHGLQPG-NH2), for which the LH % change in the assay with release of LH (setting [3]) is given as 29%; in the assay with release of LH (setting [4]), 47%; in the assay on release of LH (setting [5]) it was 30%; with release of LH (setting [6]), 8.3%. In addition, the LH in the assay on release of LH (setting [7]) was found to be 7 ng/mL; in the assay on release of LH (setting [8]), 27 ng/mL; in the assay on release of LH (setting [9]) it was 3.3 ng/mL; with release of LH (setting [10]) it was 6.8 ng/mL. Besides, the values for the FSH % change in the assay on release of FSH [1] (setting [5]) and with release of FSH [1] (setting [6]) were 48% and 39%, respectively. Also, the FSH in the assay with release of FSH [1] (setting [7]) was determined as 343 ng/mL; in the assay with release of FSH [1] (setting [8]), 416 ng/mL; in the assay with release of FSH [1] (setting [9]), 283 ng/mL; with release of FSH [1] (setting [10]) it was 456 ng/mL.
Turning to `CC(C)C[C@H](NC(=O)CNC(=O)[C@H](Cc1c[nH]cn1)NC(=O)[C@H](CO)NC(=O)[C@H](Cc1c[nH]c2ccccc12)NC(=O)[C@H](Cc1c[nH]cn1)NC(=O)[C@@H]1CCC(=O)N1)C(=O)N[C@@H](CCCNC(=N)N)C(=O)N1CCC[C@H]1C(=O)NCC(N)=O` [[His^5]--LHRH, p-Glu His Trp Ser His Gly Leu Arg Pro Gly-NH2], the LH is 14 ng/mL in the assay with release of LH (setting [9]); 142 ± 29 ng/mL and 142 ng/mL with release of LH (setting [10]). Besides, the “release of LH compared with LHRH” value in the assay with release of LH is “as active as LHRH at two dose levels; also recorded: equivalent to LHRH in the release of LH”. For the same compound, the FSH % change in the assay with release of FSH [1] (setting [6]) is given as 229%. Further, the FSH in the assay with release of FSH [1] (setting [9]) came to 652 ng/mL; in the assay with release of FSH [1] (setting [10]) it was 2684 ng/mL. Further, in the assay on release of FSH [2], the “release of FSH compared with LHRH” value is “twice as active as LHRH at the high dosage; also recorded: two times as effective in the release of FSH at the higher dose level”.
As to `CC(C)C[C@H](NC(=O)CNC(=O)[C@H](Cc1ccc(O)cc1)NC(=O)[C@H](CO)NC(=O)[C@H](Cc1c[nH]c2ccccc12)NC(=O)[C@H](Cc1c[nH]cn1)NC(=O)[C@@H]1CCC(=O)N1)C(=O)N[C@@H](Cc1ccc(O)cc1)C(=O)N1CCC[C@H]1C(=O)NCC(N)=O` [[Tyr^8]--LHRH, p-Glu His Trp Ser Tyr Gly Leu Tyr Pro Gly-NH2], the LH % change in the assay on release of LH (setting [5]) stood at 23%; with release of LH (setting [6]), 3%. Also, the LH with release of LH (setting [9]) was found to be 2.5 ng/mL; in the assay on release of LH (setting [10]) it was 2.7 ng/mL. The “release of LH compared with LHRH” value in the assay with release of LH is reported as “relatively low activities”. In addition, the FSH % change in the assay on release of FSH [1] (setting [5]) worked out at 48%; in the assay with release of FSH [1] (setting [6]), 38%. Moreover, the FSH was 285 ng/mL in the assay on release of FSH [1] (setting [9]) and 449 ng/mL with release of FSH [1] (setting [10]). Further, in the assay on release of FSH [1] (sc injection, dose and time as stated in the source), the “release of FSH compared with LHRH” value was “relatively low activities”.
As to `NC(=O)CC[C@H](NC(=O)[C@H](Cc1c[nH]c2ccccc12)NC(=O)CNC(=O)[C@H](Cc1ccc(O)cc1)NC(=O)[C@H](CO)NC(=O)[C@H](Cc1c[nH]c2ccccc12)NC(=O)[C@H](Cc1c[nH]cn1)NC(=O)[C@@H]1CCC(=O)N1)C(=O)N1CCC[C@H]1C(=O)NCC(N)=O` [[Trp^7 Gln^8]--LHRH, p-Glu His Trp Ser Tyr Gly Trp Gln Pro Gly-NH2] ([pGlu]HWSYGWQPG-NH2), the LH % change in the assay on release of LH (setting [3]) is given as 29%; with release of LH (setting [4]), 60%; in the assay with release of LH (setting [5]), 29%; in the assay with release of LH (setting [6]), 9.1%. Besides, the LH with release of LH (setting [7]) worked out at 7 ng/mL; in the assay on release of LH (setting [8]), 34 ng/mL; in the assay on release of LH (setting [9]), 3.2 ng/mL; in the assay with release of LH (setting [10]) it was 7.5 ng/mL. Besides, the figures for the FSH % change in the assay on release of FSH [1] (setting [5]) and in the assay on release of FSH [1] (setting [6]) were 58% and 40%, respectively. The FSH in the assay with release of FSH [1] (setting [7]) is 421 ng/mL; in the assay with release of FSH [1] (setting [8]), 502 ng/mL; in the assay on release of FSH [1] (setting [9]) it was 345 ng/mL; in the assay on release of FSH [1] (setting [10]), 474 ng/mL.
Turning to `CC(C)C[C@H](NC(=O)CNC(=O)[C@H](Cc1c[nH]cn1)NC(=O)[C@H](CO)NC(=O)[C@H](Cc1c[nH]c2ccccc12)NC(=O)[C@H](Cc1c[nH]cn1)NC(=O)[C@@H]1CCC(=O)N1)C(=O)N[C@@H](Cc1ccc(O)cc1)C(=O)N1CCC[C@H]1C(=O)NCC(N)=O` [[His^5 Tyr^8]--LHRH, p-Glu His Trp Ser His Gly Leu Tyr Pro Gly-NH2] ([pGlu]HWSHGLYPG-NH2), the LH % change in the assay with release of LH (30 min. after sc injection, 50 ng) is listed as 3%; with release of LH (setting [11]), 4%; in the assay with release of LH (setting [6]), 3.4%. The LH in the assay on release of LH (setting [12]) came out at 0.5 ng/mL; in the assay with release of LH (setting [13]) it was 5.0 ng/mL; with release of LH (setting [10]), 2.8 ng/mL. Moreover, the FSH % change in the assay on release of FSH [1] (setting [11]) was 3%; with release of FSH [1] (setting [6]), 42%. For the same compound, the FSH with release of FSH [1] (setting [12]) is 235 ng/mL; in the assay with release of FSH [1] (setting [13]), 534 ng/mL; with release of FSH [1] (setting [10]), 495 ng/mL.
`NC(=O)CNC(=O)[C@@H]1CCCN1C(=O)[C@H](Cc1ccc(O)cc1)NC(=O)[C@H](Cc1c[nH]c2ccccc12)NC(=O)CNC(=O)[C@H](Cc1ccc(O)cc1)NC(=O)[C@H](CO)NC(=O)[C@H](Cc1c[nH]c2ccccc12)NC(=O)[C@H](Cc1c[nH]cn1)NC(=O)[C@@H]1CCC(=O)N1` [[Trp^7 Tyr^8]--LHRH, p-Glu His Trp Ser Tyr Gly Trp Tyr Pro Gly-NH2] ([pGlu]HWSYGWYPG-NH2): the LH % change turned out to be 25% with release of LH (setting [5]) and 4.6% in the assay with release of LH (setting [6]). Further, the LH with release of LH (setting [9]) was determined as 2.8 ng/mL; in the assay with release of LH (setting [10]), 3.8 ng/mL. Besides, the FSH % change in the assay with release of FSH [1] (setting [5]) is 35%; in the assay with release of FSH [1] (setting [6]), 30%. Besides, the FSH in the assay with release of FSH [1] (setting [9]) amounted to 209 ng/mL; in the assay on release of FSH [1] (setting [10]), 352 ng/mL.

The values are drawn from patent publication US4721775A, “Effective peptides related to the luteinizing hormone releasing hormone from L-amino acids” (Board of Regents, The University of Texas System, priority 1985, dated 1988).
